Experimental data: the supplement of paper PMC5908809

What was measured:
KAI3 (IL-2 2.5 ng/mL) [1] = experiment: percent inhibition of viability; higher = more inhibition; conditions: 72 h
[2] = tested on: normal primary NK cells, pool 1 (3 donors), resting (IL-2 0 ng/mL); experiment: as above; conditions: 72 h
SNK-6 (IL-2 2.5 ng/mL) [3] = experiment: as above; conditions: 72 h
IMC-1 (IL-2 20 ng/mL) [4] = experiment: as above; conditions: 72 h
NK-YS (IL-2 2.5 ng/mL) [5] = experiment: as above; conditions: 72 h
NKL (IL-2 2.5 ng/mL) [6] = experiment: as above; conditions: 72 h
NK-92 (IL-2 2.5 ng/mL) [7] = experiment: as above; conditions: 72 h
[8] = tested on: normal primary NK cells, pool 3 (3 donors) (IL-2 2.5 ng/mL); experiment: as above; conditions: 72 h
YT (IL-2 2.5 ng/mL) [9] = experiment: as above; conditions: 72 h
[10] = tested on: normal primary NK cells, pool 1 (3 donors) (IL-2 2.5 ng/mL); experiment: as above; conditions: 72 h
DERL-7 (IL-2 2.5 ng/mL) [11] = experiment: as above; conditions: 72 h
KHYG-1 (IL-2 2.5 ng/mL) [12] = experiment: as above; conditions: 72 h
[13] = tested on: normal primary NK cells, pool 2 (3 donors) (IL-2 2.5 ng/mL); experiment: as above; conditions: 72 h
[14] = tested on: normal NK cells expanded with K562-aAPC; experiment: as above; conditions: 72 h, IL-2 2.5 ng/mL
Experimental: (§1)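 Drug sensitivity and resistance testing on K562-aAPC-expanded normal NK cells: 5 concentrations (10-fold steps over a 10,000-fold range), 72 h at 37 °C, viability by CellTiter-Glo normalised to DMSO and benzethonium chloride controls; DSS from the fitted curve.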

KAI3 (IL-2 2.5 ng/mL) [15] = experiment: drug sensitivity score (DSS) (DSS units); higher = more sensitive; extreme values may be limits of the assay; conditions: 72 h
[16] = tested on: normal primary NK cells, pool 1 (3 donors), resting (IL-2 0 ng/mL); experiment: as above; conditions: 72 h
SNK-6 (IL-2 2.5 ng/mL) [17] = experiment: as above; conditions: 72 h
IMC-1 (IL-2 20 ng/mL) [18] = experiment: as above; conditions: 72 h
NK-YS (IL-2 2.5 ng/mL) [19] = experiment: as above; conditions: 72 h
NKL (IL-2 2.5 ng/mL) [20] = experiment: as above; conditions: 72 h
NK-92 (IL-2 2.5 ng/mL) [21] = experiment: as above; conditions: 72 h
[22] = tested on: normal primary NK cells, pool 3 (3 donors) (IL-2 2.5 ng/mL); experiment: as above; conditions: 72 h
YT (IL-2 2.5 ng/mL) [23] = experiment: as above; conditions: 72 h
[24] = tested on: normal primary NK cells, pool 1 (3 donors) (IL-2 2.5 ng/mL); experiment: as above; conditions: 72 h
DERL-7 (IL-2 2.5 ng/mL) [25] = experiment: as above; conditions: 72 h
KHYG-1 (IL-2 2.5 ng/mL) [26] = experiment: as above; conditions: 72 h
[27] = tested on: normal primary NK cells, pool 2 (3 donors) (IL-2 2.5 ng/mL); experiment: as above; conditions: 72 h
[28] = tested on: normal NK cells expanded with K562-aAPC; experiment: as above; conditions: 72 h; IL-2 2.5 ng/mL
Experimental: as §1

COc1ccc(CCc2nc3cc(-c4c(C)noc4C)ccc3n2C[C@H](C)N2CCOCC2)cc1Cl [SGC-CBP30] (max concentration tested 25000 nM)
percent inhibition of viability [%]
Conditions | 2.5 nM | 25 nM | 250 nM | 2500 nM | 25000 nM
DERL-7 (IL-2 2.5 ng/mL) [11] | 0.1 | 3.95 | 12.3 | 60.5 | 96.1
IMC-1 (IL-2 20 ng/mL) [4] | -7.53 | -9.31 | -8.36 | -20.2 | 35.3
KAI3 (IL-2 2.5 ng/mL) [1] | 1.53 | -3.88 | -18.5 | -12.8 | 51.8
KHYG-1 (IL-2 2.5 ng/mL) [12] | -1.44 | -8.58 | -1.59 | 16.4 | 99.4
NK-92 (IL-2 2.5 ng/mL) [7] | -16.2 | -20.5 | -26.2 | -17.7 | 64.4
NK-YS (IL-2 2.5 ng/mL) [5] | -1.97 | -5.16 | 0.38 | 22.5 | 67.9
NKL (IL-2 2.5 ng/mL) [6] | 0.5 | 1.11 | 1.38 | 53.1 | 72.8
SNK-6 (IL-2 2.5 ng/mL) [3] | -3.48 | -9.35 | 6.99 | 15.5 | 20.9
YT (IL-2 2.5 ng/mL) [9] | -1.31 | -7.71 | -7.11 | 10.1 | 70
[2] | 18.2 | 2.19 | 20.6 | 19.9 | 86
[8] | -5.75 | -3.57 | 2.2 | 8.83 | 68.9
[10] | -4.81 | 2.68 | 13 | 33.8 | 96.6
[13] | -5.14 | -1.93 | 8.85 | 24.7 | 90.1
[14] | -5.48 | -4.45 | -3.35 | 8.12 | 84.2

Conditions | drug sensitivity score
DERL-7 (IL-2 2.5 ng/mL) [25] | 13.3
IMC-1 (IL-2 20 ng/mL) [18] | 1.04
KAI3 (IL-2 2.5 ng/mL) [15] | 2.09
KHYG-1 (IL-2 2.5 ng/mL) [26] | 8.22
NK-92 (IL-2 2.5 ng/mL) [21] | 2.67
NK-YS (IL-2 2.5 ng/mL) [19] | 6.98
NKL (IL-2 2.5 ng/mL) [20] | 10.4
SNK-6 (IL-2 2.5 ng/mL) [17] | 2.41
YT (IL-2 2.5 ng/mL) [23] | 5.56
[16] | 7.45
[22] | 5.27
[24] | 9.22
[27] | 8.45
[28] | 5.98
